Source: US10646501B2, “Reducing the reproductive capacity of mammals” (priority 2012, dated 2020)

Tests used:
[1] = test system: rat pup ovaries (ovarian follicles); test: in vitro ovarian culture bioassay of follicle depletion (ovaries cultured 8 days, histology, follicle counts); type: cell-based; design: key to Biological activity (ranking, follicle depletion): 1—least chemical reactivity/biological activity; 6—most chemical reactivity/biological activity; conditions: for follicle depletion, diepoxide combined with Triptolide / Biological activity (ranking, follicle depletion): diepoxide 30 μM + Trip 5 nM; for Biological activity (ranking, follicle depletion): rank 1 to 6
Source text: The biological activity of the epoxides can be evaluated in an in vitro bioassay using rat pup ovaries based on method reported in “Characterization of a rat in vitro ovarian culture system to study the ovarian toxicant 4-vinylcyclohexene diepoxide.” Devine et. al. 2002, Taxicol. Appl. Pharmacol. 184, 107-115, incorporated herein by reference. Biological activity can be determined by follicle counts in ovarian sections after week long culture with micro molar concentrations of the epoxide. In general, biologically active epoxides will also be chemically active as well but not vice versa.
FIGS. 3A, 3B and 3C illustrate an in vitro culture system for evaluating the efficacy of follicle-depletion compositions (developed by Patrick J. Devine). As set forth in the various examples herein, ovaries are cultured with VCD with or without triptolide in serum-free media for 8 days, no gonadotropins present, no media changes and active ingredients added just once at start of culture. Ovaries are collected and processed for histology to perform follicle counting.
In vitro bioassay of follicle depletion, ovaries cultured for 8 days with different chemicals
Control—no chemicals, Triptolide—5 nM (Trip), Diepoxides. RDE, CHDE, Quetol, ERL 4221, BDE, GDE, each at 30 μM+Trip 5 nM
Ovaries were prepared for histological analysis for determination of follicle depletion

[2] = epoxide assay of chemical reactivity (alkylating assay using 4-(p-nitrobenzyl) pyridine); type: physicochemical; design: key to Chemical reactivity (ranking): 1—least chemical reactivity/biological activity; 6—most chemical reactivity/biological activity; conditions: for Chemical reactivity (ranking): reactivity in epoxide assay, rank 1 to 6
Source text: The chemical reactivity of the epoxides can determined in an alkylating assay using 4-(p-nitrobenzyl) pyridine (NBP) based on the method reported in “Detection of epoxides with 4-(p-nitrobenzyl) pyridine.” Agarwal et. al. 1979, Bull. Environm. Contam. Toxicol. 23, 825-829, incorporated herein by reference.
Compared chemical (reactivity in epoxide assay) to biological activity (follicle depletion)

[3] = test system: male rat fertility; conditions: oral exposure; cited from earlier work
[4] = test system: ovarian failure; test: VCD alone as the only active ingredient, premature ovarian failure; type: in vivo; conditions: low concentrations or short exposure durations <15 days
Source text: Premature ovarian failure is when no more ovulations occur in spite of eggs/follicles being present in an ovary. For compositions and methods to function as a means of population control, the ovarian failure desirably occurs rapidly, for example within 10 days of treatment for rodents.

[5] = test system: Sprague Dawley rats (Rattus norvegicus); conditions: via gavage; cited from earlier work
[6] = 30 μm VCD alone, cultured ovary, 8 days

Row | Structure (SMILES) | follicle depletion, diepoxide combined with Triptolide ([1]; ovaries cultured 8 days) | Biological activity (ranking, follicle depletion) ([1]; ovaries cultured 8 days) | Chemical reactivity (ranking) [2] | further results
1 | C(CCOCC1CO1)COCC1CO1 (centres unmarked) [BDE, 1,4-butanediol diglycidyl ether] | caused significant follicle depletion | 3 | 6 | 
2 | C1CC(COCC2CO2)CCC1COCC1CO1 (centres unmarked) [CHDE, 1,4-cyclohexanedimethanol diglycidyl ether] | caused significant follicle depletion | 4 | 3 | 
3 | O=C(OCC1CCC2OC2C1)C1CCC2OC2C1 (centres unmarked) [ERL 4221, 3,4-epoxy-cyclohexyl-methyl-3,4-epoxycyclohexyl carboxylate] | caused significant follicle depletion | 6 | 1 | biological activity in words ([1]; when combined with Trip, among the six diepoxides): most biologically active; chemical reactivity in words ([2]; among the six diepoxides): least chemically reactive
4 | OCC(COCC1CO1)OCC1CO1 (centres unmarked) [GDE, glycerol diglycidyl ether] | caused significant follicle depletion | 2 | 5 | 
5 | C(COCC1CO1)OCC1CO1 (centres unmarked) [Quetol, ethylene glycol diglycidyl ether] | caused significant follicle depletion | 5 | 2 | 
6 | Oc1cccc(OCC2CO2)c1 (centres unmarked) [RDE, resorcinol glycidyl ether] | did not cause significant follicle depletion | 1 | 4 | 
7 | CC(C)[C@]12O[C@H]1[C@@H]1O[C@]13[C@]1(O[C@H]1C[C@H]1C4=C(CC[C@@]13C)C(=O)OC4)[C@@H]2O [Triptolide, triptolide] |  |  |  | effect on male rat fertility [3]: compromise male rat fertility to ultimate sterility; follicle depletion, triptolide alone ([1]; Triptolide 5 nM alone, ovaries cultured 8 days): did not cause significant follicle depletion
8 | C1CC2OC2CC1C1CO1 (centres unmarked) [VCD, 4-vinylcyclohexene diepoxide] |  |  |  | effect on the other stages of follicles [1, 6]: not significantly affected; reduction in primordial follicles [1, 6]: 38%; premature ovarian failure [4]: did not cause premature ovarian failure; primordial follicle depletion [5]: efficacious to cause non-regenerating primordial follicle depletion
